From paper PMC2248166, “Quantitative peptide binding motifs for 19 human and mouse MHC class I molecules derived using positional scanning combinatorial peptide libraries” (Immunome Research, 2008)

Columns and labels:
HLA B*5401 = HLA B*5401 (Homo sapiens, UniProt P01889, A329T/C349S/D138N/D201E/E176V/E187T/E204Q/E69G/I76V/K202T/L119W/R155S/R180L/S121T/S35A/S48A/V127L/V306I/V36M/Y140L); type: binding
HLA B*5301 = HLA B*5301 (Homo sapiens, UniProt P01889, A329T/A93T/A95T/C349S/D201E/D98Y/E176V/E187L/E204Q/E69T/G107R/I218V/K202T/L105A/L119I/N104I/Q94N/R106L/R155S/R180L/S101N/S121R/S35A/S48A/T118I/V127L/V306I/V36M/Y140S/Y91F); type: binding
H-2 D^d = H-2 D^d (Mus musculus, UniProt P01900); type: binding
Chain of H-2 D^d (P01900 whole entry, looked up): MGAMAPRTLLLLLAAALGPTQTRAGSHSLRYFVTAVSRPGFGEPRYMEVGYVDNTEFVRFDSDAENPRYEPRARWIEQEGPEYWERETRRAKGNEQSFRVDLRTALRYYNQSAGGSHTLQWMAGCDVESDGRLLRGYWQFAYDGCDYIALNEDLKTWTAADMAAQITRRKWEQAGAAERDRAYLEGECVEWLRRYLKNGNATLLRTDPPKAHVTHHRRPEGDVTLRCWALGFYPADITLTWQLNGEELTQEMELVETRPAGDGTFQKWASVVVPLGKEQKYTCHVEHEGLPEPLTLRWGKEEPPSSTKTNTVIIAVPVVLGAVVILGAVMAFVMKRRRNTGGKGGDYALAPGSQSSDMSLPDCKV

HLA B*3501 = HLA B*3501 (Homo sapiens, UniProt P01889, A329T/A93T/A95T/C349S/D201E/D98Y/E176V/E187L/E204Q/E69T/I218V/K202T/L119I/Q94N/R155S/R180L/S121R/S35A/S48A/T118I/V127L/V306I/V36M/Y140S/Y91F); type: binding
H-2 K^k = H-2 K^k (Mus musculus, UniProt P04223); type: binding
Chain of H-2 K^k (P01887 21-119): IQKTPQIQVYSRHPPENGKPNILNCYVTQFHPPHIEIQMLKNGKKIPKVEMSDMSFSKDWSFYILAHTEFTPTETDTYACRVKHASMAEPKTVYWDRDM
Chain of H-2 K^k (P04223 22-369): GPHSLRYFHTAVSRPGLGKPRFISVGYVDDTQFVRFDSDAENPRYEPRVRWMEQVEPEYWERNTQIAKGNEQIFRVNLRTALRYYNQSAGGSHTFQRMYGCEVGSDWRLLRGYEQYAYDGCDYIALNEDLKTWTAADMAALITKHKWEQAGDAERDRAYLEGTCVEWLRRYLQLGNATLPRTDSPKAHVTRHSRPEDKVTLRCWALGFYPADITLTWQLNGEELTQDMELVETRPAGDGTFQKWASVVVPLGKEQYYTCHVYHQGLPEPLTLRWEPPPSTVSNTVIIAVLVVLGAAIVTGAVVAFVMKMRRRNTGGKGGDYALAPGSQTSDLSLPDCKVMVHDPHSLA

HLA B*5801 = HLA B*5801 (Homo sapiens, UniProt P01889, A329T/C349S/D201E/D98Y/E176V/E187L/E204Q/E69T/G107R/I218V/I90N/K202T/L105A/L119I/N104I/N87E/Q89R/Q94S/R106L/R155S/R180L/R86G/S101N/S121R/S35A/S48A/T118I/V127L/V306I/V36M/Y140S/Y91M); type: binding
HLA B*0702 = HLA B*0702 (Homo sapiens, UniProt P01889); type: binding; details: positional scanning combinatorial 9-mer library; normalized to 1.0 for the best residue at each position
HLA B*1501 = HLA B*1501 (Homo sapiens, UniProt P01889, A329T/A93T/A95T/C349S/D201E/D98Y/E187L/E204Q/E69M/E70A/K202T/N87E/Q94N/R155S/R180W/S121R/S35A/S48A/V306I/V36M/Y140S/Y91S); test: biochemical; type: binding
HLA A*3001 = HLA A*3001 (Homo sapiens, UniProt P04439, D140H/D185E/E176W/F33S/G80R/H175R/K168Q/R138E/R41S); test: biochemical; type: binding
HLA B*0801 = HLA B*0801 (Homo sapiens, UniProt P01889, A93T/A95T/D138N/E176V/E187T/K202T/Q94N/R180D/S35A/V36M/Y33D/Y91F); test: biochemical; type: binding
HLA A*6802 = HLA A*6802 (Homo sapiens, UniProt P04439, A269V/D140Y/D185E/E176V/E277Q/E87N/F33Y/G231S/I121R/I166T/I218V/L180W/L300P/L318F/N151K/P208A/P217A/Q86R/R138H/R169H/S129P/T345S/V36M); type: binding
HLA B*1503 = HLA B*1503 (Homo sapiens, UniProt P01889, A329T/A93T/A95T/C349S/D201E/D98Y/E187L/E204Q/K202T/N87E/Q94N/R155S/R180L/S121R/S35A/V306I/V36M/Y140S/Y91S); test: biochemical; type: binding
HLA B*5101 = HLA B*5101 (Homo sapiens, UniProt P01889, A329T/A93T/A95T/C349S/D138N/D201E/D98Y/E187L/E204Q/E69T/G107R/I218V/K202T/L105A/L119W/N104I/Q94N/R106L/R155S/R180L/S101N/S121T/S35A/S48A/V306I/V36M/Y195H/Y91F); type: binding
HLA B*2705 = HLA B*2705 (Homo sapiens, UniProt P01889, D138H/D201E/E176V/E204Q/G107R/H137Y/K202T/N104T/N87E/Q56L/Q94K/R106L/R155S/R180L/S101D/S121N/S48T/Y140D/Y33H/Y91C); type: binding; details: positional scanning combinatorial 9-mer library; normalized to 1.0 for the best residue at each position
H-2 D^b = H-2 D^b (Mus musculus, UniProt P01899); type: binding
Chain of H-2 D^b (P01887 21-119): as the sequence (P01887 21-119) above
Chain of H-2 D^b (P01899 25-362): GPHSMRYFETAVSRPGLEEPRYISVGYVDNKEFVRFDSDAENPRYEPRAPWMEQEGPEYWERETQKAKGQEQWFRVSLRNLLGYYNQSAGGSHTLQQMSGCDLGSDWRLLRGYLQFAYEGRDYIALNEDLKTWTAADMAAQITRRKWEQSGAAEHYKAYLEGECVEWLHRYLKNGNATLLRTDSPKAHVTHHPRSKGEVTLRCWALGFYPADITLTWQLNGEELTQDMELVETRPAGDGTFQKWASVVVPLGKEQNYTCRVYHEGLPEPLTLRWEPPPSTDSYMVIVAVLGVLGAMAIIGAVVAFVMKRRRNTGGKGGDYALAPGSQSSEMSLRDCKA

HLA B*5802 = HLA B*5802 (Homo sapiens, UniProt P01889, A329T/C349S/D201E/D98Y/E176V/E187L/E204Q/E69T/G107R/I218V/I90N/K202T/L105A/N104I/N87E/Q89R/Q94S/R106L/R155S/R180L/R86G/S101N/S121W/S35A/S48A/V127L/V306I/V36M/Y140S/Y91M); type: binding
HLA A*3201 = HLA A*3201 (Homo sapiens, UniProt P04439, A270S/D101S/D185E/E176V/E277Q/F133L/G103R/G107R/G231S/H175R/I121M/I218V/I322F/K168Q/L105A/L300P/L318F/M331R/P208A/P217A/Q94H/R106L/R138Q/S129P/T104I/T323A/T345S/V100E/V321M/V358M); test: biochemical; type: binding
HLA A*0201 = HLA A*0201 (Homo sapiens, UniProt P04439, D140Y/D185E/D98H/E176V/E277Q/G131W/G231S/I119V/I121R/I166T/I218V/L300P/L318F/N151K/N90K/P208A/P217A/Q86G/Q94H/R138H/R169H/T345S); details: positional scanning combinatorial 9-mer library; normalized to 1.0 for the best residue at each position

Sequence	Normalized average relative binding affinity (ARB), HLA B*5401 (HLA B*5401)	Normalized average relative binding affinity (ARB), HLA B*5301 (HLA B*5301)	Normalized average relative binding affinity (ARB), H-2 Dd (H-2 D^d)	Normalized average relative binding affinity (ARB), HLA B*3501 (HLA B*3501)	Normalized average relative binding affinity (ARB), H-2 Kk (H-2 K^k)	Normalized average relative binding affinity (ARB), HLA B*5801 (HLA B*5801)	Normalized average relative binding affinity (ARB), HLA B*0702 (HLA B*0702)	Normalized average relative binding affinity (ARB), HLA B*1501 (HLA B*1501)	Normalized average relative binding affinity (ARB), HLA A*3001 (HLA A*3001)	Normalized average relative binding affinity (ARB), HLA B*0801 (HLA B*0801)	Normalized average relative binding affinity (ARB), HLA A*6802 (HLA A*6802)	Normalized average relative binding affinity (ARB), HLA B*1503 (HLA B*1503)	Normalized average relative binding affinity (ARB), HLA B*5101 (HLA B*5101)	Normalized average relative binding affinity (ARB), HLA B*2705 (HLA B*2705)	Normalized average relative binding affinity (ARB), H-2 Db (H-2 D^b)	Normalized average relative binding affinity (ARB), HLA B*5802 (HLA B*5802)	Normalized average relative binding affinity (ARB), HLA A*3201 (HLA A*3201)	Normalized average relative binding affinity (ARB), HLA A*0201 (HLA A*0201)
PXXXXXXXX [3064.0013]	0.0097	0.0038	0.095	0.023	0.052	0.030	0.029	0.059	0.0059	0.012	0.0050	0.018	0.037	0.022	0.030	0.059	0.055	0.0032
XXCXXXXXX [3064.0042]	0.015	0.0065	0.0028	0.074	0.15	0.11	0.047	0.35	0.0048	0.020	0.071	0.048	0.24	0.14	0.098	0.37	0.32	0.22
XNXXXXXXX [3064.0032]	0.0018	0.0083	0.018	0.0078	0.0053	0.012	0.0028	0.052	0.10	0.16	0.034	0.032	0.022	0.0016	0.11	0.20	0.025	0.0062
XXFXXXXXX [3064.0045]	0.11	0.19	0.0072	0.49	0.39	0.52	0.067	0.83	0.041	0.19	0.82	0.62	0.65	1.0	0.099	0.41	0.98	0.63
